From ChEMBL document CHEMBL2346657, “Synthesis of novel 2-amino-4-(5'-substituted 2'-phenyl-1H-indol-3'-yl)-6-aryl-4H-pyran-3-carbonitrile derivatives as antimicrobial and antioxidant agents” (2013)
Activity calls are given as the source filed them. Unless noted, the rule behind the calls is not given here.

Legend:
Format in all cases: functional
[1] = Antioxidant activity assessed as metal chelating activity by measuring inhibition of ferrozine-Fe2+ complex formation at 25 to 100 ug/ml
[2] = Antioxidant activity assessed as ferric ion reducing activity at 100 ug/ml by FRAP assay
Aspergillus flavus [3] = assay: Antimicrobial activity against Aspergillus flavus MTCC 1973 at 500 ug/ml after 72 hrs by cup plate method; settings: MTCC 1973, 72 h, read-out: IZ
Aspergillus flavus [4] = assay: Antimicrobial activity against Aspergillus flavus MTCC 1973 at 750 ug/ml after 72 hrs by cup plate method; settings: MTCC 1973, 72 h, read-out: IZ
Aspergillus flavus [5] = assay: Antimicrobial activity against Aspergillus flavus MTCC 1973 at 1000 ug/ml after 72 hrs by cup plate method; settings: MTCC 1973, 72 h, read-out: IZ
Aspergillus terreus [6] = assay: Antimicrobial activity against Aspergillus terreus MTCC 1782 at 500 ug/ml after 72 hrs by cup plate method; settings: MTCC 1782, 72 h, read-out: IZ
Aspergillus terreus [7] = assay: Antimicrobial activity against Aspergillus terreus MTCC 1782 at 750 ug/ml after 72 hrs by cup plate method; settings: MTCC 1782, 72 h, read-out: IZ
Aspergillus terreus [8] = assay: Antimicrobial activity against Aspergillus terreus MTCC 1782 at 1000 ug/ml after 72 hrs by cup plate method; settings: MTCC 1782, 72 h, read-out: IZ
Aspergillus oryzae [9] = assay: Antimicrobial activity against Aspergillus oryzae MTCC 3567 at 500 ug/ml after 72 hrs by cup plate method; settings: MTCC 3567, 72 h, read-out: IZ
Aspergillus oryzae [10] = assay: Antimicrobial activity against Aspergillus oryzae MTCC 3567 at 750 ug/ml after 72 hrs by cup plate method; settings: MTCC 3567, 72 h, read-out: IZ
Aspergillus oryzae [11] = assay: Antimicrobial activity against Aspergillus oryzae MTCC 3567 at 1000 ug/ml after 72 hrs by cup plate method; settings: MTCC 3567, 72 h, read-out: IZ
Aspergillus niger [12] = assay: Antimicrobial activity against Aspergillus niger MTCC 281 at 500 ug/ml after 72 hrs by cup plate method; settings: MTCC 281, 72 h, read-out: IZ
Aspergillus niger [13] = assay: Antimicrobial activity against Aspergillus niger MTCC 281 at 750 ug/ml after 72 hrs by cup plate method; settings: MTCC 281, 72 h, read-out: IZ
Aspergillus niger [14] = assay: Antimicrobial activity against Aspergillus niger MTCC 281 at 1000 ug/ml after 72 hrs by cup plate method; settings: MTCC 281, 72 h, read-out: IZ
Pseudomonas aeruginosa [15] = assay: Antimicrobial activity against Pseudomonas aeruginosa MTCC 1688 at 500 ug/ml after 24 hrs by cup plate method; settings: MTCC 1688, 24 h, read-out: IZ
Pseudomonas aeruginosa [16] = assay: Antimicrobial activity against Pseudomonas aeruginosa MTCC 1688 at 750 ug/ml after 24 hrs by cup plate method; settings: MTCC 1688, 24 h, read-out: IZ
Pseudomonas aeruginosa [17] = assay: Antimicrobial activity against Pseudomonas aeruginosa MTCC 1688 at 1000 ug/ml after 24 hrs by cup plate method; settings: MTCC 1688, 24 h, read-out: IZ
Klebsiella pneumoniae [18] = assay: Antimicrobial activity against Klebsiella pneumoniae NCTC 13368 at 500 ug/ml after 24 hrs by cup plate method; settings: NCTC 13368, 24 h, read-out: IZ
Klebsiella pneumoniae [19] = assay: Antimicrobial activity against Klebsiella pneumoniae NCTC 13368 at 750 ug/ml after 24 hrs by cup plate method; settings: NCTC 13368, 24 h, read-out: IZ
Klebsiella pneumoniae [20] = assay: Antimicrobial activity against Klebsiella pneumoniae NCTC 13368 at 1000 ug/ml after 24 hrs by cup plate method; settings: NCTC 13368, 24 h, read-out: IZ
Staphylococcus aureus [21] = assay: Antimicrobial activity against Staphylococcus aureus ATCC 29513 at 500 ug/ml after 24 hrs by cup plate method; settings: ATCC 29513, 24 h, read-out: IZ
Staphylococcus aureus [22] = assay: Antimicrobial activity against Staphylococcus aureus ATCC 29513 at 750 ug/ml after 24 hrs by cup plate method; settings: ATCC 29513, 24 h, read-out: IZ
Staphylococcus aureus [23] = assay: Antimicrobial activity against Staphylococcus aureus ATCC 29513 at 1000 ug/ml after 24 hrs by cup plate method; settings: ATCC 29513, 24 h, read-out: IZ
Escherichia coli [24] = assay: Antimicrobial activity against Escherichia coli MTCC 723 at 500 ug/ml after 24 hrs by cup plate method; settings: MTCC 723, 24 h, read-out: IZ
Escherichia coli [25] = assay: Antimicrobial activity against Escherichia coli MTCC 723 at 750 ug/ml after 24 hrs by cup plate method; settings: MTCC 723, 24 h, read-out: IZ
Escherichia coli [26] = assay: Antimicrobial activity against Escherichia coli MTCC 723 at 1000 ug/ml after 24 hrs by cup plate method; settings: MTCC 723, 24 h, read-out: IZ
[27] = tested on: Radical scavenging activity; assay: Antioxidant activity assessed as DPPH radical scavenging activity at 100 ug/ml

Row | SMILES | Activity [1] | zone of inhibition at 500 µg/mL (Aspergillus flavus [3]) | zone of inhibition at 750 µg/mL (Aspergillus flavus [4]) | zone of inhibition at 1000 µg/mL (Aspergillus flavus [5]) | zone of inhibition at 500 µg/mL (Aspergillus oryzae [9]) | zone of inhibition at 750 µg/mL (Aspergillus oryzae [10]) | zone of inhibition at 1000 µg/mL (Aspergillus oryzae [11]) | zone of inhibition at 500 µg/mL (Aspergillus niger [12]) | zone of inhibition at 750 µg/mL (Aspergillus niger [13]) | zone of inhibition at 1000 µg/mL (Aspergillus niger [14]) | zone of inhibition at 500 µg/mL (Pseudomonas aeruginosa [15]) | zone of inhibition at 750 µg/mL (Pseudomonas aeruginosa [16]) | zone of inhibition at 1000 µg/mL (Pseudomonas aeruginosa [17]) | zone of inhibition at 500 µg/mL (Klebsiella pneumoniae [18]) | zone of inhibition at 750 µg/mL (Klebsiella pneumoniae [19]) | zone of inhibition at 1000 µg/mL (Klebsiella pneumoniae [20]) | zone of inhibition at 500 µg/mL (Staphylococcus aureus [21]) | zone of inhibition at 750 µg/mL (Staphylococcus aureus [22]) | zone of inhibition at 1000 µg/mL (Staphylococcus aureus [23]) | zone of inhibition at 500 µg/mL (Escherichia coli [24]) | further results
1 | Nc1n[nH]c2c1C(c1c(-c3ccccc3)[nH]c3ccc(Cl)cc13)C=C(c1ccc(Cl)cc1)O2 (stereo not given) | Active | 9 mm | 9 mm | 5 mm | 10 mm | 10 mm | 10 mm | 10 mm | 10 mm | 11 mm | 10 mm | 9 mm | 9 mm | 13 mm | 13 mm | 13 mm | 14 mm | 14 mm | 14 mm | 13 mm | Activity [2]: Active; zone of inhibition at 500 µg/mL (Aspergillus terreus [6]): 9 mm; zone of inhibition at 750 µg/mL (Aspergillus terreus [7]): 9 mm; zone of inhibition at 1000 µg/mL (Aspergillus terreus [8]): 8 mm; zone of inhibition at 750 µg/mL (Escherichia coli [25]): 13 mm; zone of inhibition at 1000 µg/mL (Escherichia coli [26]): 14 mm
2 | N#CC1=C(N)OC(c2ccccc2)=CC1c1c(-c2ccccc2)[nH]c2ccccc12 (stereo not given) | Active | 10 mm | 10 mm | 10 mm | 9 mm | 9 mm | 5 mm | 6 mm | 5 mm | 10 mm | 9 mm | 9 mm | 9 mm | 13 mm | 13 mm | 13 mm | 10 mm | 10 mm | 10 mm | 10 mm | Activity [27]: Active; zone of inhibition at 500 µg/mL (Aspergillus terreus [6]): 9 mm; zone of inhibition at 750 µg/mL (Aspergillus terreus [7]): 5 mm; zone of inhibition at 1000 µg/mL (Aspergillus terreus [8]): 3 mm; zone of inhibition at 750 µg/mL (Escherichia coli [25]): 8 mm; zone of inhibition at 1000 µg/mL (Escherichia coli [26]): 8 mm
3 | N#CC1=C(N)OC(c2ccc(Cl)cc2)=CC1c1c(-c2ccccc2)[nH]c2ccc(Cl)cc12 (stereo not given) | Active | 12 mm | 12 mm | 13 mm | 10 mm | 10 mm | 9 mm | 10 mm | 10 mm | 10 mm | 10 mm | 10 mm | 10 mm | 10 mm | 10 mm | 10 mm | 13 mm | 13 mm | 13 mm | 13 mm | Activity [27]: Active; zone of inhibition at 750 µg/mL (Escherichia coli [25]): 13 mm; zone of inhibition at 1000 µg/mL (Escherichia coli [26]): 14 mm
